≈ marks a conversion by molar mass, not a printed value. Entries after “also recorded” stand apart in the source; their conditions may differ. Read-outs that look alike come from different tables or passages of the source.
Legend:
[1] = Solubility of 8-phenylxanthines; type: physicochemical
adenosine A1 receptors [2] = target: T1, adenosine A1 receptors (Bos taurus, UniProt P28190); assay: biochemical;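 also: Filter-bound radioactivity read by liquid scintillation counting, with dose-inhibition curves built from 4–8 test concentrations, each run in triplicate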
T1 sequence (P28190 1-326): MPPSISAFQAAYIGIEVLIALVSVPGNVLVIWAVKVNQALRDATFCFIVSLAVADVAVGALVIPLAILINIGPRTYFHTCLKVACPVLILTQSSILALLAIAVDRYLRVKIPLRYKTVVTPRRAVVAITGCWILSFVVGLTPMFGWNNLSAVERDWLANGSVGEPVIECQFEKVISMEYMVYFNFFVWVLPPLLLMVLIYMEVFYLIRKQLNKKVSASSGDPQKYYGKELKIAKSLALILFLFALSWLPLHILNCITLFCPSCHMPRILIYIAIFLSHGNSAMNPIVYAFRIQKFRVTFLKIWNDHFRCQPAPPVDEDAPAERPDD
Protocol: (§1) Incubation was terminated and samples were collected on GF/B filters under vacuum, washed three times, and counted in a liquid scintillation counter. Dose-inhibition curves were generated with four to eight concentrations of the test compound in triplicate incubations.

adenosine A1 receptors [3] = target: T1, adenosine A1 receptors; assay: inhibition of [^3 H]CHA binding to A1 adenosine receptors in bovine brain membranes;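 also: Filter-bound radioactivity read by liquid scintillation counting, with dose-inhibition curves built from 4–8 test concentrations, each run in triplicate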
Protocol: as §1

A1 receptor in rat brain = target: T2, A1 receptor in rat brain (Rattus norvegicus, UniProt P25099); assay: A1 receptor affinity in rat brain; type: binding
T2 construct: from tissue; host or cells: rat brain
T2 sequence (P25099 1-326): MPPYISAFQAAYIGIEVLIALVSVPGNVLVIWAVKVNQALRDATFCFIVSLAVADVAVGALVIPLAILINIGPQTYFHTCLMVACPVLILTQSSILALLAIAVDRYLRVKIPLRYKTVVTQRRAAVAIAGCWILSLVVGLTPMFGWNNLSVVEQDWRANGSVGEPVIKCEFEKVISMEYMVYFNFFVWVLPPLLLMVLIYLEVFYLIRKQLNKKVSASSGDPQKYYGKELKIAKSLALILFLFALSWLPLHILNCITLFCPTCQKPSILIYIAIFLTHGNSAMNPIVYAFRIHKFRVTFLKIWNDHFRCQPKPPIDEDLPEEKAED

hydrophobicity = type: physicochemical
adenosine A1 receptors [4] = target: T1, adenosine A1 receptors
Protocol: as §1

[5] = Table I, vs [^3 H]-cyclohexyladenosine, bovine brain
[6] = Table II, vs [^3 H-CHA] in bovine brain

With `CCn1c(=O)c2[nH]c(-c3ccccc3)nc2n(CC)c1=O` [1,3-diethyl-8-phenylX, 1,3-diethyl-8-phenylxanthine] the solubility ([1]; water, read-out: soluble in water at) was 3 µM (≈ 0.853 µg/mL).
For `Cn1c(=O)c2[nH]c(-c3ccc(Cl)cc3N)nc2n(C)c1=O` [B246, 8-(2-Amino-4-Chlorophenyl) Theophylline], the Ki (adenosine A1 receptors [2]) was 0.2 nM, the IC50 (adenosine A1 receptors [3]) was 0.15 nM and the “adenosine receptor blocking activity (in words)” value (adenosine A1 receptors [3]; bovine brain) was “significantly lower”.
With `CCCn1c(=O)c2nc(-c3ccc(N)cc3N)[nH]c2n(CCC)c1=O` [B262, 1,3-Dipropyl-8-(2,4-Diaminophenyl) Xanthine] the “water solubility (in words)” value ([1]; water) was “much greater water solubility”, the Ki (adenosine A1 receptors [2]) was 0.14 nM and the IC50 (adenosine A1 receptors [3]) was 0.2 nM. For the same molecule, the “activity relative to most active prior art compound (B70)” value (adenosine A1 receptors [3]; bovine brain) was “four-fold greater”, the “adenosine receptor blocking activity (in words)” value (adenosine A1 receptors [3]; bovine brain) was “substantially less active than B256; also recorded: particularly outstanding activity” and the “adenosine receptor blocking activity (in words)” value (adenosine A1 receptors [3]; bovine brain, listed as 262) was “significantly lower”.
In the case of `CCCn1c(=O)c2[nH]c(-c3ccc(Cl)cc3N)nc2n(CCC)c1=O` [B256, 1,3-dipropyl-8-(2-amino-4-chlorophenyl)xanthine], the Ki (A1 receptor in rat brain) is reported as 5 nM, the “more potent than 8-phenyltheophylline using rat brain” value (A1 receptor in rat brain) is reported as “about 30 fold” and the “more potent than theophylline using rat brain” value (A1 receptor in rat brain) is reported as roughly 2000 fold. It also gave a solubility ([1]; dmf, organic solvent or mixture, read-out: soluble in DMF at) of 30000 µM (≈ 10900 µg/mL), a solubility ([1]; ethanol, organic solvent or mixture, read-out: soluble in ethanol at) of 1000 µM (≈ 362 µg/mL) and a solubility ([1]; hot 0.1n koh, read-out: soluble in hot 0.1N KOH at) of 1000 µM (≈ 362 µg/mL). The “water solubility (in words)” value ([1]; water) was “very water-insoluble”, the “hydrophobicity (in words)” value (hydrophobicity) was “hydrophobic” and the Ki (adenosine A1 receptors [4]) was 0.022 nM. For the same molecule, the IC50 (adenosine A1 receptors [3]; [5]) was 0.05 nM, the “activity relative to most active prior art compound (B70)” value (adenosine A1 receptors [3]; bovine brain) was roughly 16 times and the “adenosine receptor blocking activity (in words)” value (adenosine A1 receptors [3]; bovine brain) was “significantly lower; also recorded: extremely potent; also recorded: particularly outstanding activity”. For the same molecule, the “times more potent than xanthine” value (adenosine A1 receptors [3]; bovine brain) was “approximately 4,000,000 times” and the Ki (adenosine A1 receptors [3]; read-out: Ki for adenosine A1 receptors, bovine brain) was 0.022 nM.
In the case of `Cn1c(=O)c2[nH]c(-c3ccc(N)cc3N)nc2n(C)c1=O` [B232, 8-(2,4-diaminophenyl)theophylline], the Ki (adenosine A1 receptors [2]) is reported as 5.9 nM and the IC50 (adenosine A1 receptors [3]; [5]) is reported as 8 nM.
In the case of `CCn1c(=O)c2[nH]c(-c3ccc(Cl)cc3N)nc2n(CC)c1=O` [1,3-diethyl-8-(2-amino-4-chlorophenyl)X, 1,3-diethyl-8-(2-amino-4-chlorophenyl)xanthine], the Ki (adenosine A1 receptors [2]) is reported as 0.32 nM and the IC50 (adenosine A1 receptors [3]; [6]) is reported as 0.8 nM.
With `Cn1c(=O)c2[nH]c(-c3ccc([N+](=O)[O-])cc3N)nc2n(C)c1=O` [8-(2-amino-4-nitrophenyl)T] the Ki (adenosine A1 receptors [2]) was 1.2 nM and the IC50 (adenosine A1 receptors [3]; [6]) was 2.5 nM.
For `Cn1c(=O)[nH]c2nc[nH]c2c1=O` [1-methylX], the IC50 (adenosine A1 receptors [3]) was 6000 nM and the Ki (adenosine A1 receptors [3]) was 2600 nM.
Work on `CN(C)c1ccc(-c2nc3c([nH]2)c(=O)n(C)c(=O)n3C)cc1` [8-(p-dimethylaminophenyl)T] yielded an IC50 (adenosine A1 receptors [3]; [6]) of 1.8 nM.
`Cn1c(=O)c2[nH]c(-c3ccc(C(=O)O)cc3)nc2n(C)c1=O` [8-(p-carboxyphenyl)T] gave a Ki (adenosine A1 receptors [3]) of 18 nM and an IC50 (adenosine A1 receptors [3]; [6]) of 50 nM.
With `Cn1c(=O)c2[nH]c(-c3cccc(N)c3)nc2n(C)c1=O` [8-(m-aminophenyl)T] the Ki (adenosine A1 receptors [3]) was 5.8 nM and the IC50 (adenosine A1 receptors [3]; [6]) was 10 nM.
For `Cn1c(=O)[nH]c2ncn(C)c2c1=O` [1,7-dimethylX], the IC50 (adenosine A1 receptors [3]) was 30000 nM and the Ki (adenosine A1 receptors [3]) was 7400 nM.
Work on `Cn1c(=O)c2[nH]c(-c3cccc([N+](=O)[O-])c3)nc2n(C)c1=O` [8-(m-nitrophenyl)T] yielded a Ki (adenosine A1 receptors [3]) of 22 nM and an IC50 (adenosine A1 receptors [3]; [6]) of 50 nM.
With `Cc1ccc(-c2nc3c([nH]2)c(=O)n(C)c(=O)n3C)cc1` [8-(p-methylphenyl)T] the IC50 (adenosine A1 receptors [3]; [6]) was 0.8 nM.

— patent publication US4769377A, “Adenosine receptor antagonists” (priority 1986, dated 1988)
